Experimental data published in patent US20060211700A1, “(R)-8,9-dichloro-2,3,4,4a-tetrahydro-1H,6H-pyrazino[1,2-a]quinoxalin-5-one for controlling IOP and treating glaucoma” (Alcon, Inc., priority 2005, published 2006).

Tests used:
[1] = tested on: lasered (hypertensive) eyes of conscious cynomolgus monkeys; experiment: Acute IOP response in lasered (hypertensive) eyes of conscious cynomolgus monkeys; type: in vivo, cynomolgus monkey; conditions: for IOP % change / IOP Change mmHg: lasered eye; for IOP lowering efficacy (in words): dosed at 300 μg
Protocol: Acute IOP Response in Lasered (Hypertensive) Eyes of Conscious Cynomolgus Monkeys
Intraocular pressure (IOP) can be determined with an Alcon Pneumatonometer after light corneal anesthesia with 0.1% proparacaine. Eyes are washed with saline after each measurement. After a baseline IOP measurement, test compound is instilled in one 30 μL aliquot to the right eyes only of nine cynomolgus monkeys. Vehicle is instilled in the right eyes of six additional animals. Subsequent IOP measurements are taken at 1, 3, and 6 hours.
The above method was used to determine the IOP lowering efficacy of 8,9-dichloro-2,3,4,4a-tetrahydro-1H,6H-pyrazino[1,2-a]quinoxalin-5-one when dosed at 300 μg.
The same method was used to evaluate the IOP lowering ability of the R enantiomer of the Compound (substantially free of the S enantiomer), dosed at 300 μg.

[2] = target: T1, human serotonin receptor clone 5-HT2A (Homo sapiens, UniProt P28223); experiment: In vitro functional response (aequorin luminescence) in CHO-K1 cells expressing 5-HT2A; type: cell-based; conditions: for Emax: CHO-K1, relative to the response of α-methyl-5-HT; for EC50: CHO-K1 cells, aequorin, Gα16
T1 construct: expressed in transfected cells; host or cells: CHO-K1
T1 sequence (P28223 whole entry): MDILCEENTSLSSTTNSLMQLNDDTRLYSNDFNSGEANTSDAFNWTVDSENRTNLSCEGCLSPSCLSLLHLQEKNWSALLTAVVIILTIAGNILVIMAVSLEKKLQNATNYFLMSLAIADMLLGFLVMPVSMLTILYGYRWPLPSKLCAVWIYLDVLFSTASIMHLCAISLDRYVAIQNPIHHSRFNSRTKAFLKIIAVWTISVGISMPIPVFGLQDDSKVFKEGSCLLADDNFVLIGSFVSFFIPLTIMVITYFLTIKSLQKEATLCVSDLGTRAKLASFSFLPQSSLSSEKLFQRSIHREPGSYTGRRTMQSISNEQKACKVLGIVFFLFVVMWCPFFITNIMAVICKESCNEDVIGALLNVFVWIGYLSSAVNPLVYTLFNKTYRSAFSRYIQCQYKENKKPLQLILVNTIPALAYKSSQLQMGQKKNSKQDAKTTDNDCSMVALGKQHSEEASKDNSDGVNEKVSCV
Protocol: (§1) In Vitro Functional Response at 5-HT2 Receptors
(§2) Functional response at the 5-HT2 receptor subtypes was determined using CHO-K1 cells stably expressing mitochondrially-targeted bioluminescent aequorin, Gα16, and one of either human serotonin receptor clone 5-HT2A, 5-HT2B, or 5-HT2C. Prior to testing, cells were loaded in suspension with coelenterazine for 4-16 hours and directly injected onto different concentrations of the test compound. Light emitted from the cells was measured 20-30 seconds following receptor activation. A luminometer was used to record luminescence in response to the test compound. The mean response signal at each of 8-11 different concentrations was integrated to provide an estimation of receptor activation, expressed as the EC50 value. The efficacy of the response (Emax) at the 5-HT2A and 5-HT2B receptors is expressed relative to the response of α-methyl-5-HT under the same assay conditions while the efficacy at 5-HT2C is expressed relative to the response of 5-HT.

[3] = target: T2, human serotonin receptor clone 5-HT2B (Homo sapiens, UniProt P41595); experiment: In vitro functional response (aequorin luminescence) in CHO-K1 cells expressing 5-HT2B; type: cell-based; conditions: for Emax: CHO-K1, relative to the response of α-methyl-5-HT; for EC50: CHO-K1 cells, aequorin, Gα16
T2 construct: expressed in transfected cells; host or cells: CHO-K1
T2 sequence (P41595 whole entry): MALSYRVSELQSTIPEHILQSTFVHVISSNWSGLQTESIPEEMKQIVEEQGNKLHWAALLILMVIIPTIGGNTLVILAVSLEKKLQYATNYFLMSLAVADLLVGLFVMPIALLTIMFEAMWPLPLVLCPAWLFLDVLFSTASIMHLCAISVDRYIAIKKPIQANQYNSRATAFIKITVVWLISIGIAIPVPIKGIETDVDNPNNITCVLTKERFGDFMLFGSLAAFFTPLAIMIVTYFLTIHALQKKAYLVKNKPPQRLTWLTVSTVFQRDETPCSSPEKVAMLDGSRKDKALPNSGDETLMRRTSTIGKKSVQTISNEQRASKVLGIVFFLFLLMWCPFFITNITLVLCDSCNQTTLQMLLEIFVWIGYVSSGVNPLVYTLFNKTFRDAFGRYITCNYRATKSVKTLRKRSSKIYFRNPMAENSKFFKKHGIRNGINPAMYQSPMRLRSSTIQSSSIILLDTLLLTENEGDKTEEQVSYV
Protocol: as §1, §2

[4] = target: T3, human serotonin receptor clone 5-HT2C (Homo sapiens, UniProt P28335); experiment: In vitro functional response (aequorin luminescence) in CHO-K1 cells expressing 5-HT2C; type: cell-based; conditions: for Emax: CHO-K1, relative to the response of 5-HT; for EC50: CHO-K1 cells, aequorin, Gα16
T3 construct: expressed in transfected cells; host or cells: CHO-K1
T3 sequence (P28335 33-458): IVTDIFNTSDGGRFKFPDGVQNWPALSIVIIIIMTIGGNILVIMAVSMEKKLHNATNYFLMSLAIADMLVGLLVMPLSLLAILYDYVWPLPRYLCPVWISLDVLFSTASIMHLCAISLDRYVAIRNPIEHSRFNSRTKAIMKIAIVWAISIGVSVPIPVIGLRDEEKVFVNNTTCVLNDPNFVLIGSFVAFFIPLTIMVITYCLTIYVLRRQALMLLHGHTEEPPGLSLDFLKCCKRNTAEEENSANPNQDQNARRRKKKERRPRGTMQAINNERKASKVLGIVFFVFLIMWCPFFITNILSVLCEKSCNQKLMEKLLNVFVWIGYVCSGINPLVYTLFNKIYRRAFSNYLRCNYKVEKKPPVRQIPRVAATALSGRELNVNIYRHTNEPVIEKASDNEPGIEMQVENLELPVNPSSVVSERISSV
Protocol: as §1, §2

[5] = target: T4, 5-HT2C receptor (Homo sapiens, UniProt P28335); conditions: R enantiomer versus S enantiomer; cited from earlier work
T4 sequence (P28335 33-458): T3 sequence (P28335 33-458)

[6] = 1 hr after topical dose of 300 μg (one 30 μL aliquot)
[7] = 3 hrs after topical dose of 300 μg (one 30 μL aliquot)
[8] = 6 hrs after topical dose of 300 μg (one 30 μL aliquot)

Structure (SMILES): O=C1Nc2cc(Cl)c(Cl)cc2N2CCNC[C@H]12 [R enantiomer, (R)-8,9-dichloro-2,3,4,4a-tetrahydro-1H,6H-pyrazino[1,2-a]quinoxalin-5-one]
- IOP % change [1, 6]: −12.9%
- IOP Change mmHg [1, 6]: −5.8 mmHg
- IOP % change [1, 7]: −26.3%
- IOP Change mmHg [1, 7]: −11.7 mmHg
- IOP % change [1, 8]: −34.7%
- IOP Change mmHg [1, 8]: −15.0 mmHg
- IOP lowering efficacy (in words) [1]: significant decrease in IOP
- Emax [2]: 108%
- EC50 [2]: 20.5 nM
- Emax [3]: 99%
- EC50 [3]: 31.6 nM
- Emax [4]: 108%
- EC50 [4]: 2.6 nM
- potency relative to the S enantiomer at the 5-HT2C receptor [5]: approximately 40 fold

Structure (SMILES): O=C1Nc2cc(Cl)c(Cl)cc2N2CCNCC12 (racemic) [Racemic, 8,9-dichloro-2,3,4,4a-tetrahydro-1H,6H-pyrazino[1,2-a]quinoxalin-5-one]
- IOP % change [1, 6]: −5.7%
- IOP Change mmHg [1, 6]: −2.8 mmHg
- IOP % change [1, 7]: −21.9%
- IOP Change mmHg [1, 7]: −9.6 mmHg
- IOP % change [1, 8]: −29.3%
- IOP Change mmHg [1, 8]: −12.8 mmHg
- IOP lowering efficacy (in words) [1]: significant decrease in IOP
- Emax [2]: 112%
- EC50 [2]: 37.5 nM
- Emax [3]: 98%
- EC50 [3]: 76.8 nM
- Emax [4]: 105%
- EC50 [4]: 4.2 nM

Structure (SMILES): O=C1Nc2cc(Cl)c(Cl)cc2N2CCNC[C@@H]12 [S enantiomer]
- Emax [2]: 96%
- EC50 [2]: 2260 nM
- Emax [3]: 45%
- EC50 [3]: 2540 nM
- Emax [4]: 105%
- EC50 [4]: 614 nM
